Measurements: ChEMBL document CHEMBL5346859, “Dual-target Janus kinase (JAK) inhibitors: Comprehensive review on the JAK-based strategies for treating solid or hematological malignancies and immune-related diseases” (Eur J Med Chem, 2022)
Each block holds one compound with its values, some of them ahead of it.

Experiments:
[1] = target: Non-receptor tyrosine-protein kinase TYK2 (Homo sapiens, UniProt P29597); experiment: Inhibition of TYK2 (unknown origin) by flow cytometry analysis
[2] = target: Tyrosine-protein kinase JAK3 (Homo sapiens, UniProt P52333); experiment: Inhibition of JAK3 (unknown origin) by flow cytometry analysis
[3] = target: Tyrosine-protein kinase JAK1 (Homo sapiens, UniProt P23458); experiment: Inhibition of JAK1 (unknown origin) by flow cytometry analysis
[4] = target: Tyrosine-protein kinase SYK (Homo sapiens, UniProt P43405); experiment: Inhibition of SYK (unknown origin) by flow cytometry analysis
[5] = target: T1, Tyrosine-protein kinase JAK2 (Homo sapiens, UniProt O60674); experiment: Inhibition of JAK2 (unknown origin) by flow cytometry analysis
[6] = target: T1, Tyrosine-protein kinase JAK2; experiment: Inhibition of recombinant GST-tagged JAK2 catalytic domain (unknown origin) using pEY (4:1) as substrate incubated for 120 mins in presence of 33P-labeled ATP
[7] = target: T1, Tyrosine-protein kinase JAK2; experiment: Inhibition of recombinant human JAK2 (808 to end residues) using biotinylated TK substrate in presence of [33P]ATP
[8] = target: Tyrosine-protein kinase Tec (Homo sapiens, UniProt P42680); experiment: Inhibition of TEC (unknown origin) in presence of ATP
[9] = system: BaF3; experiment: Antitumor activity against mouse BaF3 cells harboring JAK2 V617F mutant implanted in BALB/c mouse model assessed as normalization rate of liver weight at 150 mg/kg, po qd administered from day 4 post infection and measured after 14 days relative to control; type: functional; conditions: time 10 day
[10] = system: BaF3; experiment: Antitumor activity against mouse BaF3 cells harboring JAK2 V617F mutant implanted in BALB/c mouse model assessed as normalization rate of spleen weight at 150 mg/kg, po qd administered from day 4 post infection and measured after 14 days relative to control; type: functional; conditions: time 10 day
[11] = system: MOLM-13; experiment: Antitumor activity against human MOLM-13 cells xenografted mouse model assessed as tumor growth inhibition at 150 mg/kg administered for 7 days relative to control; type: functional; conditions: MOLM-13, 168 h, time 7 day, read-out: TGI
[12] = system: MOLM-13; experiment: Antiproliferative activity against human MOLM-13 cells assessed as inhibition of cell growth incubated for 48 hrs by CCK-8 assay; type: functional, cell-based; conditions: MOLM-13, 48 h
[13] = target: T2, Receptor-type tyrosine-protein kinase FLT3 (Homo sapiens, UniProt P36888); experiment: Inhibition of FLT3 (unknown origin) using FAM-labeled peptide as substrate preincubated with compound for 10 mins followed by substrate addition and measured after 60 mins in presence of ATP
T2 sequence (P36888 whole entry): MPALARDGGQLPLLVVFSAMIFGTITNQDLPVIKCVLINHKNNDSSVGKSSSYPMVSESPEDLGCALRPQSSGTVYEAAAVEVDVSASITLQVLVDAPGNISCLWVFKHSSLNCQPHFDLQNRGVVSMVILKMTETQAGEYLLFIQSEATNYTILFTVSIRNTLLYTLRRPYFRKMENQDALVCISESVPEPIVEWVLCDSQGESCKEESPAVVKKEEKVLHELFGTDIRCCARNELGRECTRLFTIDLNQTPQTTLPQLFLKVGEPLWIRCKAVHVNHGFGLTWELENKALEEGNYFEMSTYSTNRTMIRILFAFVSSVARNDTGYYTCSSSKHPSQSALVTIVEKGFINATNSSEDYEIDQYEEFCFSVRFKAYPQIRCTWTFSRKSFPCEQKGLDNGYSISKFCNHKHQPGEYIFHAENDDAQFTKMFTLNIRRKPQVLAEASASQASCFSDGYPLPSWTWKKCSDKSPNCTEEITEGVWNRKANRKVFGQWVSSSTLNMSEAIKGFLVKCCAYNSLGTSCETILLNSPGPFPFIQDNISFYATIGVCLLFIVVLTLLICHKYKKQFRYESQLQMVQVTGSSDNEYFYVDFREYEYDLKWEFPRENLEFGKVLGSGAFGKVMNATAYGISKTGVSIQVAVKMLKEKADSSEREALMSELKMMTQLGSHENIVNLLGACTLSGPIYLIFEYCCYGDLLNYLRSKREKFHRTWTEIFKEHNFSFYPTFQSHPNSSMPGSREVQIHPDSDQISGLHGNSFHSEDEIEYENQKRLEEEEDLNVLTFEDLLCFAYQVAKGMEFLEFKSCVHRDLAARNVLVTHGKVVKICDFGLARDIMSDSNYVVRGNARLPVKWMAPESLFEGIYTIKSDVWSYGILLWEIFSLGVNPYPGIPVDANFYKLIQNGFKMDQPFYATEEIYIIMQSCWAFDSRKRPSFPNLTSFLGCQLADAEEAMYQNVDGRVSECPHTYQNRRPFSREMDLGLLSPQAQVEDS

[14] = target: T1, Tyrosine-protein kinase JAK2; experiment: Inhibition of JAK2 (unknown origin) using FAM-labeled peptide as substrate preincubated with compound for 10 mins followed by substrate addition and measured after 60 mins in presence of ATP
[15] = system: HEL; experiment: Antiproliferative activity against HEL cells assessed as inhibition of cell growth incubated for 48 hrs by CCK-8 assay; type: functional, cell-based; conditions: Homo sapiens
[16] = Metabolic stability in rat liver microsomes assessed as half life by LC-MS/MS analysis; type: ADME, Microsome

T1 sequence (O60674 whole entry, the tested form may be a part): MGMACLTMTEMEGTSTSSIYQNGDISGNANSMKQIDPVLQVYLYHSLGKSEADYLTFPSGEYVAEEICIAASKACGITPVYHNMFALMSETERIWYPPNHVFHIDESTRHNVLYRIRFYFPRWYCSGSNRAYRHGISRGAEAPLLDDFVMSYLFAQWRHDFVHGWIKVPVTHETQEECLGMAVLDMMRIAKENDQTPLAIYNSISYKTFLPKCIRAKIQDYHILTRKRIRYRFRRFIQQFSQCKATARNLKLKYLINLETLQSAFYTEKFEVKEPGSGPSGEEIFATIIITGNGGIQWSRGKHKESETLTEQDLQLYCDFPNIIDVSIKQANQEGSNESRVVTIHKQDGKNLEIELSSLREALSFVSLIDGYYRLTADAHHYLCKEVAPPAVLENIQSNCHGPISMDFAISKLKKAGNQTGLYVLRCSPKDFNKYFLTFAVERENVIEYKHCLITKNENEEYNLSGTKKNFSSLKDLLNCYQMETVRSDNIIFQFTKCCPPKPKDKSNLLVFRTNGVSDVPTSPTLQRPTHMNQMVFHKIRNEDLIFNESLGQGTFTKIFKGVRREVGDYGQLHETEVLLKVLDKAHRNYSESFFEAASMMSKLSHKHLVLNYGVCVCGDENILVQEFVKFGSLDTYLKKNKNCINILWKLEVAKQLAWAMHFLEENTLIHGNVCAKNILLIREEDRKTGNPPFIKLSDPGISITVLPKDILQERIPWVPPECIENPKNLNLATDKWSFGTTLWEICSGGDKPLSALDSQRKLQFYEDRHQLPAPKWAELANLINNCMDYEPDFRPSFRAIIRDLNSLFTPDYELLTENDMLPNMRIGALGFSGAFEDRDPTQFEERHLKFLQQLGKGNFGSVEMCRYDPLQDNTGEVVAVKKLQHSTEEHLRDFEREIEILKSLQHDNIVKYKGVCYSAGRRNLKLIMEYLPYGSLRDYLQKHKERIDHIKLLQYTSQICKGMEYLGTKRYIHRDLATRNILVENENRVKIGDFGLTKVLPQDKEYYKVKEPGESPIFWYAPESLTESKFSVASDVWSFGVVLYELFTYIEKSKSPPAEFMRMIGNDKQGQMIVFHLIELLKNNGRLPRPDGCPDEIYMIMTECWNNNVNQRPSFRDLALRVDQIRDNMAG
Tyrosine-protein kinase Tec, sequence (P42680 whole entry): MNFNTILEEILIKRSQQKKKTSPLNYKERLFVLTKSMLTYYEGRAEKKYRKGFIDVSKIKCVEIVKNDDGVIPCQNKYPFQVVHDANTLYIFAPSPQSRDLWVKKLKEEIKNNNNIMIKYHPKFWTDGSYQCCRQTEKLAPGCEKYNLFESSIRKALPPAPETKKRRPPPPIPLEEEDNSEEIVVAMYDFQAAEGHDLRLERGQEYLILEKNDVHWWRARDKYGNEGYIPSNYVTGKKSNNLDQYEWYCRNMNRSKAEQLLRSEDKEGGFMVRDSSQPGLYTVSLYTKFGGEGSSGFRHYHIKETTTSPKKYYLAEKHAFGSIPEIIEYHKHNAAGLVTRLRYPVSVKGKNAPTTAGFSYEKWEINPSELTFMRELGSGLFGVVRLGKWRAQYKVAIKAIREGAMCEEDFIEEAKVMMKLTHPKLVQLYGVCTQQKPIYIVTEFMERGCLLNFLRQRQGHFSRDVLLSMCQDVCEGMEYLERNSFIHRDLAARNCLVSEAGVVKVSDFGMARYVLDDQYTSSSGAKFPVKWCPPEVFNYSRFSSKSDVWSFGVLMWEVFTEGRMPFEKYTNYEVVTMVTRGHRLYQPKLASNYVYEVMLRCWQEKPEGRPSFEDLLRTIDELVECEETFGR
Tyrosine-protein kinase JAK3, sequence (P52333 whole entry): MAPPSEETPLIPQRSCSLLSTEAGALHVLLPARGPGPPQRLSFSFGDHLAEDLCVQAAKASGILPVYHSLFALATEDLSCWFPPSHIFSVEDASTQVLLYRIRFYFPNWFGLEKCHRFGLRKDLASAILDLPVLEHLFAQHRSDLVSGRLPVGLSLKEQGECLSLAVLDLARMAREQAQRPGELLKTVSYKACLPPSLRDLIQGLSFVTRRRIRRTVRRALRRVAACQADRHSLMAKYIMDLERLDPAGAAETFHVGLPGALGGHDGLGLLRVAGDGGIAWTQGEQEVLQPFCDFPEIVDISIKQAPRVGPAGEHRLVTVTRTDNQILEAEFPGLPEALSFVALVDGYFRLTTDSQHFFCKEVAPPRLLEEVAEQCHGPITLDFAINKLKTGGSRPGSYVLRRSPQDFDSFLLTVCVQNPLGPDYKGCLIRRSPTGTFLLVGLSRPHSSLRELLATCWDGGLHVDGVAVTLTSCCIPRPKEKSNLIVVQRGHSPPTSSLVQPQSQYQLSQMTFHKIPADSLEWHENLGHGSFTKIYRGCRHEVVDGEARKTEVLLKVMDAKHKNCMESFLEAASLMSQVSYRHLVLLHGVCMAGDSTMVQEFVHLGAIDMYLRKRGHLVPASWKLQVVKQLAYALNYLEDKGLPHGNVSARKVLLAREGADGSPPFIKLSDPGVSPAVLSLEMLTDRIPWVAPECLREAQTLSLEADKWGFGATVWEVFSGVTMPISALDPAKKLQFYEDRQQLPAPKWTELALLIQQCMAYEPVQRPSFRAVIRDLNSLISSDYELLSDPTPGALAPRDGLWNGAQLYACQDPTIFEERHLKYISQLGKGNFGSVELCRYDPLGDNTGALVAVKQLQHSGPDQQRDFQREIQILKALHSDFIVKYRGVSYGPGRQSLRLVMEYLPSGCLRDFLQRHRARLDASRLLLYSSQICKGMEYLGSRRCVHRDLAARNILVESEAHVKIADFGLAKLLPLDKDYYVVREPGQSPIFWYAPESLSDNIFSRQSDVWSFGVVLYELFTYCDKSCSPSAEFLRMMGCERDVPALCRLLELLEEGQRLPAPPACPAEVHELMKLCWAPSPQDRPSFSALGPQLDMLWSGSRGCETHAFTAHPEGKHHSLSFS
Non-receptor tyrosine-protein kinase TYK2, sequence (P29597 whole entry): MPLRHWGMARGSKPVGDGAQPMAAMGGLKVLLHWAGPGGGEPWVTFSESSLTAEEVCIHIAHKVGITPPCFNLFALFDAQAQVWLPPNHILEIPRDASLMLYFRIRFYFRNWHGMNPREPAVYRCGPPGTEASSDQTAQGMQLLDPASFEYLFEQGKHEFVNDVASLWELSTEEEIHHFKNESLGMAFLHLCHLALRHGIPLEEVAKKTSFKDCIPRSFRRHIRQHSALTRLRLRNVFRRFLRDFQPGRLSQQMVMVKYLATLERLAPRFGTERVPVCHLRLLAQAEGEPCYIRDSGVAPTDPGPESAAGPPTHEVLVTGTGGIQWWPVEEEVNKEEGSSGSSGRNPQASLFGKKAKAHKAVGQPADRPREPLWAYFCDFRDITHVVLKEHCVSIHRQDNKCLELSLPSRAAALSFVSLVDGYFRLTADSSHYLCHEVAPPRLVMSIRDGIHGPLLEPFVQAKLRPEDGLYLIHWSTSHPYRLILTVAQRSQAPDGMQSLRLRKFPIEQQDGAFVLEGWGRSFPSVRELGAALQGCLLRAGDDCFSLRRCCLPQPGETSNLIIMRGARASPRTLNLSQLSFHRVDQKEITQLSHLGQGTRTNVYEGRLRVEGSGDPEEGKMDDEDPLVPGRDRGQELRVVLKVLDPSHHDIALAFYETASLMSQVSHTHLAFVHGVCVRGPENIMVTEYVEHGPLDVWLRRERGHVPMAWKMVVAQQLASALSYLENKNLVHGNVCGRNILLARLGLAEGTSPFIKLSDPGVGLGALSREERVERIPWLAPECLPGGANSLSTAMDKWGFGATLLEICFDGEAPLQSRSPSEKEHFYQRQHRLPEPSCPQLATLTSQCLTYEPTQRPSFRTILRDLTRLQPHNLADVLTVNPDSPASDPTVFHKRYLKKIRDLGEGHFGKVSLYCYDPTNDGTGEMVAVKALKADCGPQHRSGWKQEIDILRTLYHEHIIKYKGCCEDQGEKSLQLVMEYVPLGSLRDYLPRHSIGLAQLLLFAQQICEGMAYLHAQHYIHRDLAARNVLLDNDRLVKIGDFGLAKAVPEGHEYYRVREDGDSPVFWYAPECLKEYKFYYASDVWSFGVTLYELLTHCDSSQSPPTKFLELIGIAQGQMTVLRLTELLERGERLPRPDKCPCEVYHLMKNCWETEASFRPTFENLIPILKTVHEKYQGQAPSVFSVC

IC50 [1]: 8 nM | IC50 [2]: 11 nM | IC50 [3]: 46 nM | IC50 [4]: 5 nM | IC50 [5]: 4 nM
Structure (SMILES): N#CCC1CCN(c2nc(Nc3ccc(N4CCC(O)CC4)cc3)c3c(=O)[nH]ncc3n2)CC1 [GUSACITINIB]

IC50 [6]: > 10000 nM
Structure (SMILES): O=C1Nc2c(Br)cccc2/C1=C1/Nc2ccccc2/C1=N\OCCN1CCNCC1

IC50 [7]: 2.6 nM
Structure (SMILES): C[C@H]1CC(C(=O)CC#N)[C@]12CCN(c1ncnc3[nH]ccc13)C2 (stereo partly specified)

IC50 [8]: 155 nM
Structure (SMILES): C=CC(=O)N1C[C@H](Nc2ncnc3[nH]ccc23)CC[C@@H]1C [RITLECITINIB]

Structure (SMILES): C1=N/C2=N/c3ccc(OCCN4CCCC4)c(c3)COC/C=C/COCc3cccc(c3)C(=C1)N2 [PACRITINIB]
Activity [9]: 99% | Activity [10]: 42% | inhibition in vivo at 150 mg/kg [11]: 83%

IC50 [12]: 19 nM | IC50 [13]: 0.68 nM | IC50 [14]: 1.8 nM | half-life [16]: 31 min
Structure (SMILES): CC(=O)c1ccc(NC(=O)N2CCN(c3nc(Nc4ccc(N5CCOCC5)cc4)ncc3Cl)CC2)cc1
IC50 [15]: 500 nM
